# PMC6335200 (Journal of medicinal chemistry, 2018)
# Tests used:
# [1] = system: EBOV (Kikwit isolate)
# [2] = molecular target: T1, GAK (Homo sapiens, UniProt O14976); settings: read-out: GAK affinity Kd; cited from earlier work
# T1 sequence (O14976 1-1311): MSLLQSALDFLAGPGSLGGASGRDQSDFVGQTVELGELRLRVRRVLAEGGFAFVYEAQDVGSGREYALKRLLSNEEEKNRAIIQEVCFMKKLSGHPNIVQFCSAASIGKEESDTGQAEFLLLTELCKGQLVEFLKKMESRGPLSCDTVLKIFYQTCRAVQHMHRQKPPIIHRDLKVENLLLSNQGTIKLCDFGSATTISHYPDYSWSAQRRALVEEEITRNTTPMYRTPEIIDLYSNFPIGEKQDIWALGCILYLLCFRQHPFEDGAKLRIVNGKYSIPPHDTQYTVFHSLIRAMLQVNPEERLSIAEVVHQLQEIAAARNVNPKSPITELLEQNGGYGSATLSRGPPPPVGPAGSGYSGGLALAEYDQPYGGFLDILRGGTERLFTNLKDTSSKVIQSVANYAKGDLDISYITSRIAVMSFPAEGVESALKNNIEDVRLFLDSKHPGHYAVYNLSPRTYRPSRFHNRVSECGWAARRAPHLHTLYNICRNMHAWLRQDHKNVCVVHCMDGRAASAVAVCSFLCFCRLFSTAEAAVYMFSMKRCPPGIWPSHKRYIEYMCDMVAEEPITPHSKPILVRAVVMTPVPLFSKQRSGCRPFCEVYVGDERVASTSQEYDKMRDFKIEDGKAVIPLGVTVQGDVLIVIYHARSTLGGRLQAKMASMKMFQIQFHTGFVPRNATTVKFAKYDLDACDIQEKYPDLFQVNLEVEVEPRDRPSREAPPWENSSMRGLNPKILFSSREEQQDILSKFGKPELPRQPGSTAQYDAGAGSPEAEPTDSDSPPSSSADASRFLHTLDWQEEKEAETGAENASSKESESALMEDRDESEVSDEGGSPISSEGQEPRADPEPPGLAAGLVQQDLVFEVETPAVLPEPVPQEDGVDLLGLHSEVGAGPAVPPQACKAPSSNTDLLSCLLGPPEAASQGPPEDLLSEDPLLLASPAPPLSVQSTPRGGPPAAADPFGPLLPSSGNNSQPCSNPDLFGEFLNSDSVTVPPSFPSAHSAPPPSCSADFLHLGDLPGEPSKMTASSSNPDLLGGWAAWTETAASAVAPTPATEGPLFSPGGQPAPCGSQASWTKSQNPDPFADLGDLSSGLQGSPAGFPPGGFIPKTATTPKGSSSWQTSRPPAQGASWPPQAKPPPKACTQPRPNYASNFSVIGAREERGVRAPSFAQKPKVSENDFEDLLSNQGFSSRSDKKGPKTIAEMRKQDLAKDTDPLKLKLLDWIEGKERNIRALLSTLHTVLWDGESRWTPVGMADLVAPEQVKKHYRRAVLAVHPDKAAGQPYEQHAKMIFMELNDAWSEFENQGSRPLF
# [3] = system: AP2M1 phosphorylation; test: AP2M1 phosphorylation by Western analysis in Huh7 cells; assay type: cell-based, Human; settings: calyculin A 30 minutes before lysis
# [4] = system: EBOV (Kikwit isolate); test: microbe, parasite or virus in culture; settings: Zaire ebolavirus, Huh-7, 48 h, read-out: EBOV antiviral activity EC50
# [5] = system: CHIKV (strain AF15561); assay type: cell-based, Chikungunya virus
SMILES,anti-EBOV activity (in words) [1],Kd [2] [µM],effect on AP2M1 phosphorylation (in words) [3],EC50 [4] [µM],effect on CHIKV infection (in words) [5]
COc1cc(-c2cnc3c(N4CCOCC4)snc3c2)ccc1N [Compound 4],no anti-EBOV activity beyond cytotoxicity,0.008,,,
"COc1cc(-c2cnc3c(N4C[C@@H](C)O[C@@H](C)C4)snc3c2)ccc1N [Compound 12r, 4-(3-(cis-2,6-Dimethylmorpholino)isothiazolo[4,3-b]pyridin-6-yl)-2-methoxyaniline]",,,reduced AP2M1 phosphorylation,~2,dose-dependent decrease in CHIKV infection
